Columns and labels:
PARP [1] = assay: In vivo MFAM imaging of drug target engagement in HT1080 tumor, mouse dorsal skinfold window chamber
Description: All animal experiments were performed in accordance with the Institutional Animal Care and Use Committee at Massachusetts General Hospital. Female 20-weeks old nude mice (Cox-7, Massachusetts General Hospital) were used. All surgical procedures were conducted under sterile conditions and facilitated through the use of a zoom stereomicroscope (Olympus SZ61). During all surgical procedures and imaging experiments mice were anesthetized by isofluorane vaporization (Harvard Apparatus) at a flow rate of […]: 2 L/minute oxygen. The body temperature of the mice was kept constant at 37° C. during all imaging experiments and surgical procedures. Dorsal skinfold window chambers (DSC) were implanted one day prior to imaging following a well-established protocol. Briefly, the two layers of skin on the back of the mouse were stretched and kept in place by the DSC. One skin layer was surgically removed and replaced by a 12-mm diameter glass cover slip positioned on one side of the DSC allowing for convenient access and imaging of the tumor area. A spacer located on the DSC prevented excessive compression of both tissue and vessel guaranteeing good vascularperfusion within the tumor region.
HT1080 H2B mApple cells were harvested by trypsinization (0.25% trypsin:EDTA) and resuspended in PBS. […]

PARP1 [2] = target: T1, PARP1 (Homo sapiens, UniProt P09874); assay: MFAM fluorescence anisotropy of free vs PARP1-bound AZD2281-BODIPY FL in solution; format: binding; conditions: PARP1 at 1.6x of 5 μM probe, imaging media with 2.5% FBS
Description: AZD2281 labeled with BODIPY FL (AZD2281-BODIPY FL) was prepared as previously described (see Thurber, G. M. et al., Single-cell and subcellular pharmacokinetic imaging allows insight into drug action in vivo, Nat Commun, 4, 1504, (2013), for example). PARP1 (BioVision) was brought up in the manufactures recommended solution and added at 1.6× the concentration of AZD2281-BODIPY FL (5 μM) in imaging media containing 2.5% FBS. Free AZD2281-BODIPY FL (5 μM) (no PARP) in the same imaging media with 2.5% FBS and in DMSO solutions were also made. Images were taken of drops of solution between cover glass.
(§1) Images were analyzed in Matlab (Mathworks) and ImageJ. All anisotropy measurements were calculated from the equation r=(I∥−I⊥)/(I∥+2I⊥). The detector noise of the two photodetectors was subtracted from the whole images before the data were processed. Fluorescence images represent the denominator of the anisotropy equation, which represents the entire fluorescence from the sample. Anisotropy values were obtained by defining a region of interest and measuring the average anisotropy within that region. Regions were extended to fluorescent images to calculate the corresponding intensity. […]

PARP1 [3] = target: T1, PARP1; assay: FLIM fluorescence lifetime upon binding to PARP1 in vitro
Description: Fluorescence lifetime imaging was performed using a Zeiss 710 confocal NLO laser scanning system on an upright Zeiss Examiner stand with a 40×NA 1.1 water immersion LD CApochromat objective and a Becker & Hickl TCSPC system. Two-photon excitation was achieved using a Coherent Chameleon Vision II tunable laser (680-1040 nm) that provided 140-femtosecond pulses at a 80-Mhz repetition rate with an output power of 3 W at the peak of the tuning curve (800 nm). Laser scanning was controlled by Zeiss Zen software and set to a pixel dwell time of 1.58 microseconds and 0.9-sec frame rate at 910 nm wavelength excitation.
Enhanced detection of the scattered component of the emitted (fluorescence) photons was afforded by the use of a Becker & Hickl HPM-100-40 hybrid detector, which incorporates the Hamamatsu R10467 hybrid PMT tube Imaging was performed in the dark with blackout enclosure around the microscope to exclude external sources of light during the sensitive period of FLIM measurement. Emitted fluorescence was deflected to the non-descanned light path via a 760+ mirror and emission range was limited to 500-550 nm by a Chroma filter in front of the HPM-100-40 detector. […]
where r0 is the fundamental anisotropy of the dye-dependent on the orientation of the excitation and emission dipole moments. […] The fluorescent microspheres (100% and 30%) had the same fluorescence lifetime, 3.6±0.3 nsec. […]

PARP [4] = target: T2, PARP (Homo sapiens, UniProt P09874); assay: In vitro cellular MFAM imaging of drug target engagement in live cells; format: cell-based
T2 construct: endogenous in cells; host or cells: HT1080
Description: HT1080 cells (ATCC) stably expressing H2B mApple fluorescent protein were cultured in DMEM with 10% FBS, 1% pen-strep and 100 μg/ml geneticin (Invitrogen). HT1080 cells were cultured in DMEM with 10% FBS and 1% pen-strep. […] Cells were plated onto 25 mm #1 cover glass for in vitro imaging.
Cells on 25 mm cover glass were mounted into a closed bath perfusion chamber (Warner Instruments) and perfused with a custom perfusion system that enabled solution switching in the imaging chamber. Cells were imaged in phenol red-free DMEM with 10% FBS and 1% pen-strep. AZD2281-BODIPY FL (1 μM) was perfused into the imaging chamber followed by a washout with drug free media. Images were obtained during the entire time interval at regular time points. For competition experiments, free AZD2281 (5 μM) (Selleck Chemicals) was added to the incubating solution before during and after AZD2281-BODIPY FL addition. Me5-BODIPY was used for fluorophore control experiments.
as §1

NeutrAvidin = target: T3, NeutrAvidin (Gallus gallus, UniProt P02701); assay: Biotin-BODIPY and NeutrAvidin binding by MFAM anisotropy; conditions: 10x unlabeled biotin (100 μM)
T3 construct: purchased Thermo Scientific
Description: Biotin was conjugated to Me5-BODIPY (Biotin-BODIPY) and brought to 1 mM stock solution in DMSO. Biotin-BODIPY (10 μM) was mixed with varying concentrations of NeutrAvidin (Thermo Scientific) in PBS with 1% Triton X (Sigma). Each sample was imaged in triplicate as a drop between a microscope slide and cover glass. Measurements of each sample were also performed using single photon excitation in a plate reader. Measurements were also made in the presence of 100 μM free Biotin to competitively compete with the Biotin-BODIPY.

T2 sequence (P09874 2-1014): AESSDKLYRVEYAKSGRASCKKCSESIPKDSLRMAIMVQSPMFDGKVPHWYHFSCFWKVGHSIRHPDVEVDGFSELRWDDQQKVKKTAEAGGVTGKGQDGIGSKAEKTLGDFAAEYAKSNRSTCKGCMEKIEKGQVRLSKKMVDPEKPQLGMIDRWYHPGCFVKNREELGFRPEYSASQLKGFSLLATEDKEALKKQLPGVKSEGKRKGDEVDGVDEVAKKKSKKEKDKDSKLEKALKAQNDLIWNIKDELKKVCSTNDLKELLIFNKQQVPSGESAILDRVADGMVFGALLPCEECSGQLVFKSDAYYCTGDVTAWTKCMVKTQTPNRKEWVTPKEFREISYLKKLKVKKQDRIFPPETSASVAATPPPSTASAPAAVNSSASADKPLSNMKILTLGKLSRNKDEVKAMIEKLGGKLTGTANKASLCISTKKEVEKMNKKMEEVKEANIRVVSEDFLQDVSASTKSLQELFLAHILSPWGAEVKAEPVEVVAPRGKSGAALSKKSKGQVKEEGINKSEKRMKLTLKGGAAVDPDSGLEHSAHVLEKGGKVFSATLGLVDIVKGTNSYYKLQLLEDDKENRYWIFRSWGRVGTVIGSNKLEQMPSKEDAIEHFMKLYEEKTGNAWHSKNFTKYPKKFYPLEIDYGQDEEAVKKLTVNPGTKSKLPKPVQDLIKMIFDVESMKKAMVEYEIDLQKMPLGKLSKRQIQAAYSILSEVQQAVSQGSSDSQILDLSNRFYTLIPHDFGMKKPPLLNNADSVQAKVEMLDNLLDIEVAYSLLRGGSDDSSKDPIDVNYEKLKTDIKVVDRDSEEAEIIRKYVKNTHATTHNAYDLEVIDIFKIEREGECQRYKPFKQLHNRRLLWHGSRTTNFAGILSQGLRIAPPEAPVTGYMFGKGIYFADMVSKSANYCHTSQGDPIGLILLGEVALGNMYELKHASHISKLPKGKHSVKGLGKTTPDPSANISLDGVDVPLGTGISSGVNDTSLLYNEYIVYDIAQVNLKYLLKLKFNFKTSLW
T1 sequence (P09874 whole entry): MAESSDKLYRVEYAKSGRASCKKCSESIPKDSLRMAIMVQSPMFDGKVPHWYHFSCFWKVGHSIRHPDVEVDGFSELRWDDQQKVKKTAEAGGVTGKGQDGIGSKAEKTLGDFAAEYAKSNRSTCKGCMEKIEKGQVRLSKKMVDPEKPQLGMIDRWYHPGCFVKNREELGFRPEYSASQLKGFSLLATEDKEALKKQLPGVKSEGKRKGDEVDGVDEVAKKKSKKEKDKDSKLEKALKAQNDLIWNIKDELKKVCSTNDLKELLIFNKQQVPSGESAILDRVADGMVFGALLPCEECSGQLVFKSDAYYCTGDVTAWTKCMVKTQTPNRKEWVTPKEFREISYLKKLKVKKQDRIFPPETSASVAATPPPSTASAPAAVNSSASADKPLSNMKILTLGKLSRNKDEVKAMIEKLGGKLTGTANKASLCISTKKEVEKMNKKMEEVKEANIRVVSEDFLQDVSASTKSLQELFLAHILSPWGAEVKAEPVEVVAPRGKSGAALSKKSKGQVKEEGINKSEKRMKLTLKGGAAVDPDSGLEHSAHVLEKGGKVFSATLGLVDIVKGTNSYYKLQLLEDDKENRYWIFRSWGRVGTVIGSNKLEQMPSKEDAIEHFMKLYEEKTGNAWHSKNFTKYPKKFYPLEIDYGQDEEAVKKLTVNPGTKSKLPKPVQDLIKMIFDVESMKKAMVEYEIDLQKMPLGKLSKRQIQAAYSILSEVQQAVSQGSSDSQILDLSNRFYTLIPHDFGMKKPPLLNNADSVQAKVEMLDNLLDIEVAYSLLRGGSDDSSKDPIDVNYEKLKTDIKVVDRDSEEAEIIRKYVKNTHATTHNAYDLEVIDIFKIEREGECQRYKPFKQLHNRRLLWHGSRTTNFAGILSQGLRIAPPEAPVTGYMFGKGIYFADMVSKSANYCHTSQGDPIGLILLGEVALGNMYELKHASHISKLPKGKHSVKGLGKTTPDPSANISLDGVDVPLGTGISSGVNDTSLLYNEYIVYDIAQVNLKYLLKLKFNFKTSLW
T3 sequence (P02701 25-152): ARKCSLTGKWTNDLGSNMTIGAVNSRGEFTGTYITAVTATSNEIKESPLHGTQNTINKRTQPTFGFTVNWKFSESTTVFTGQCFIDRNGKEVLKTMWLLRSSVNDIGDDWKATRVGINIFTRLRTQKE

Structure (SMILES) | nuclear anisotropy over time in vivo (PARP [1]; after intravenous infusion vs 34 minutes later) | binding to PARP in the nucleus in vivo (PARP [1]; intravenous, implanted HT1080 H2B mApple tumor) | anisotropy of target-bound over free or intracellular drug (PARP1 [2]) | fluorescence lifetime (PARP1 [3]; bound to PARP1) | fluorescence lifetime (PARP1 [3]; unbound) | localisation of bound drug (high anisotropy) (PARP [4]; HT1080 cells incubated with probe) | bound drug after extended washing cycles (PARP [4]; HT1080 cells, after washing) | target binding in the cytoplasm (PARP [4]; HT1080 cells, loading and washing) | anisotropy increase of Biotin-BODIPY in presence of unlabeled competitor (NeutrAvidin)
Cc1cc(C)n2c1C=C1C=CC(CCC(=O)N3CCN(C(=O)c4cc(Cc5n[nH]c(=O)c6ccccc56)ccc4F)CC3)=[N+]1[B-]2(F)F [AZD2281-BODIPY FL] | the nuclear anisotropy increased | occurred immediately upon drug infusion | significant increase in anisotropy | 3.3±0.3 nsec | 4.1±0.3 nsec | bound drug was present in the nucleus | the nuclear, bound drug remains | no target binding | 
O=C(O)CCCC[C@@H]1SC[C@@H]2NC(=O)N[C@@H]21 [biotin] |  |  |  |  |  |  |  |  | suppressed

Source: US20190072562A1, “SYSTEM AND METHOD FOR DETERMINATION OF LIGAND-TARGET BINDING BY MULTI-PHOTON FLUORESCENCE ANISOTROPY MICROSCOPY” (THE GENERAL HOSPITAL CORPORATION, priority 2014, published 2019)
